Assay results: patent publication US20100292509A1, “VEGFC PRODUCTION PROMOTER” (Shiseido Company, Ltd, priority 2008, published 2010)

Test system: VEGFC
Conditions: HaCaT cells; 7% by weight drug solution added at 1/100, 1/1000 or 1/10000 the amount of culture liquid; 48 hours; solvent control assigned 100; FIG. 1
Protocol: HaCaT cells, which are cultured cells derived from human epidermis (German Cancer Research Center, Heidelberg, Germany), were cultured in DMEM containing 10% FBS and seeded into a 24-well plate at 15×10^4 cells per well. After about 24 hours, the medium was replaced with serum-free DMEM followed by culturing for 24 hours. Subsequently, a solution of a candidate drug dissolved in water to a concentration of 7% by weight was added in an amount equal to 1/100, 1/1000 or 1/10000 the amount of culture liquid followed by additional culturing. 48 hours after adding the drug, the culture supernatant was recovered and the amount of VEGFC in the culture supernatant was quantified by ELISA (R&D Systems) in accordance with the protocol. In addition, Alamar Blue (TREK Diagnostic Systems) was added to the cells following recovery of culture supernatant followed by measurement of the number of cells as fluorescence intensity (Ex: 544 nm, Em: 590 nm). The amount of VEGFC expressed per cell was determined by dividing the amount of VEGFC in the culture supernatant by the fluorescence value of the Alamar Blue. A solvent in the form of 70% EtOH was added to the cells instead of drug for use as a control, and the value thereof was assigned a value of 100. In addition, 5% FBS was used as a positive control.

Structure (SMILES): CNC(=O)[C@H]1CC[C@H](CN)CC1.Cl [tranexamic acid methylamide hydrochloride]
- VEGFC induction activity (amount of VEGFC expressed per cell): dose-dependent VEGFC induction activity that exceeded that of the control
